Reference: patent US20230271949A1, “GLP-1R MODULATING COMPOUNDS” (ASCLETIS BIOSCIENCE CO., LTD., priority 2022, published 2023)

Key:
GLP-1R [1] = target: T1, GLP-1R (Homo sapiens, UniProt P43220); test: GLP-1R agonist cAMP stimulation assay (HTRF cAMP); type: cell-based; conditions: HEK293 cell line expressing GLP-1 target; HTRF cAMP agonist mode, 30 min at RT
How it was run: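 GLP-1R-expressing cells were stimulated with 10-point, 3-fold compound dilutions for 30 min at RT; HTRF cAMP detection reagents were then added for 60 min and the 665/615 ratio read. Ratios were converted to cAMP via a standard curve and % activity scaled between DMSO and top-concentration GLP-1(7-37) reference wells.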

GLP-1R [2] = target: T1, GLP-1R; test: Tag-lite binding assay (competition with GLP-1 receptors red agonist); conditions: for IC50: HEK293 GLP-1 cells labeled with SNAP-Lumi4-Tb, red agonist 4.917 nM, 23° C., 2 h; for Ki: calculated from sample IC50 and red agonist Kd
Method: B. Tag-Lite Binding Assay
The cell line was constructed by WuXi.
10) Dispense cells into cell plate (1.8 M cells/well in 2 ml medium of 6-well plate, total 4 wells).
Second Day: Tag-Lite Binding Assay
3) The cell culture medium is removed from the 6-well plate and then 1 mL of Tag-lite SNAP-Lumi4-Tb diluted in Tag-lite labeling medium are added gently on the cells.
7) The testing compounds and reference compound are serially diluted with 3-fold, 10 points using Echo, then transfer 100 nL compounds to the assay plate.
8) Add the labeled cells to each well according to the plate map, 10000 cells/10 uL/well. Centrifuge the plate at 1000 rpm for 1 min.
9) Incubate the plate at 23° C., 30 min.
10) Add 50 nL of red agonist (final conc.: 4.917 nM) to destination plate using Echo.
11) Incubate the plate at 23° C. for 2 h.
12) Read the plate on an HTRF® compatible reader (at 665 nm and 620 nm).
% Inhibition=100%−(Ratio−LC)/(HC−LC)*100%
HC: The average ratio of adding DMSO wells
LC: The average ratio of adding the top concentration of reference compounds wells
b) The “log (inhibitor) vs. response—Variable slope” model in GraphPad Prism 5.0 was used to fit the dose-response curve of each sample. The sample concentration (x) and its corresponding % Inhibition data (y) were substituted into the model. The sample concentration (abscissa) was x=log(x) transformed. The transformed xy was used as the sample curve to obtain the IC50.
c) Calculate the sample Ki according to the sample IC50 and red agonist Kd. S in the formula is the actual used concentration of red agonist.

T1 sequence (P43220 24-463): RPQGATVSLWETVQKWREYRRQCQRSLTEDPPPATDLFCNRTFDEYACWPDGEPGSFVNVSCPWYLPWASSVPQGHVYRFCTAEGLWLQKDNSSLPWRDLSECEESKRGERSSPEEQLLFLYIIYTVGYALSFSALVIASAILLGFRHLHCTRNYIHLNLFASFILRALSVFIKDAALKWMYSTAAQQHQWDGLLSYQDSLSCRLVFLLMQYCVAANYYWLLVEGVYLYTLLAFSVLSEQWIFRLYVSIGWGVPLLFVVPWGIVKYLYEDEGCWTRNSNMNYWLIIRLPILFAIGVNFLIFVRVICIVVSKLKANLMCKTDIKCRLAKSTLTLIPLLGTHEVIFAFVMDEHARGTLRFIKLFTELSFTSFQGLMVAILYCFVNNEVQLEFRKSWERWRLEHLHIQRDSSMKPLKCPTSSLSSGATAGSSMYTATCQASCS

SMILES	EC50 (GLP-1R [1]) [nM]	IC50 (GLP-1R [2]) [nM]	Ki (GLP-1R [2]) [nM]
O=C(Nc1ccc2c(c1)nc(CN1CC=C(c3cccc(OCc4ccc(Cl)cc4F)n3)CC1)n2C[C@@H]1CCO1)c1ccc2[nH]c(=O)[nH]c2c1 [Compound 142]	0.21	2010	1000
CCn1cncc1Cn1c(Cc2cc(F)c(-c3cccc(OCc4ccc(Cl)cc4F)n3)cc2F)nc2cc(NC(=O)c3cc(F)c4[nH]nc(C)c4c3)ccc21 [Compound 414]	0.57	31.7	15.6
Cc1cc(NC(=O)c2ccc3c(c2)nc(CN2CC=C(c4cccc(OCc5ccc(C#N)cc5F)n4)CC2)n3C[C@@H]2CCO2)cc2c1NC(=O)C21CC1 [Compound 178]	0.19	875	430
Cc1n[nH]c2c(F)cc(C(=O)Nc3ccc4c(c3)nc(Cc3c(F)cc(-c5cccc6c5O[C@](C)(c5ccc(Cl)cn5)O6)cc3F)n4CC3CCO3)cc12 (stereo partly drawn) [Compound 387]	0.86	346	205
Cc1n[nH]c2ccc(NC(=O)c3ccc4c(c3)nc(CN3CC=C(c5cccc6c5O[C@@](C)(c5ccc(Cl)cc5F)O6)CC3)n4C[C@@H]3CCO3)cc12 [Compound 5, 2-((4-((S)-2-(4-chloro-2-fluorophenyl)-2-methylbenzo[d][1,3]dioxol-4-yl)-3,6-dihydropyridin-1(2H)-yl)methyl)-N-(3-methyl-1H-indazol-5-yl)-1-(((S)-oxetan-2-yl)methyl)-1H-benzo[d]imidazole-5-carboxamide]	0.12	1700	911
Cc1n[nH]c2ccc(C(=O)Nc3ccc4c(c3)nc(CN3CCC(c5cccc6c5OC(C)(c5ccc(Cl)cc5F)O6)CC3)n4CC3CCO3)cc12 (stereo not drawn) [Compound 342]	0.91	140	72.2
Cc1n[nH]c2ccc(NC(=O)c3ccc4c(c3)nc(CN3CC=C(c5cccc(OCc6ccc(Cl)cc6F)n5)CC3)n4C[C@@H]3CCO3)cc12 [Compound 3, (S)-2-((6-((4-chloro-2-fluorobenzyl)oxy)-3′,6′-dihydro-[2,4′-bipyridin]-1′(2′H)-yl)methyl)-N-(3-methyl-1H-indazol-5-yl)-1-(oxetan-2-ylmethyl)-1H-benzo[d]imidazole-5-carboxamide]	0.56	1750	876
Cc1n[nH]c2c(F)cc(C(=O)Nc3ccc4c(c3)nc(Cc3cc(F)c(-c5cccc(OCc6ccc(Cl)cc6F)n5)cc3F)n4C3COC[C@H]3O)cc12 (stereo partly drawn) [Compound 417]	0.65	137	69.2
O=C(Nc1ccc2[nH]c(=O)[nH]c2c1)c1ccc2c(c1)nc(CN1CC=C(c3cccc(OCc4ccc(Cl)cc4F)n3)CC1)n2C[C@@H]1CCO1 [Compound 147]	0.68	1750	841
Cc1n[nH]c2c(F)cc(C(=O)Nc3ccc4c(c3)nc(Cc3cc(F)c(-c5cccc(OCc6ccc(Cl)cc6F)n5)cc3F)n4C[C@@H]3CCO3)cc12 [Compound 413]	0.49	28	14.1
Cc1n[nH]c2ccc(C(=O)Nc3ccc4c(c3)nc(CN3CC=C(c5cccc(OCc6ccc(Cl)cn6)n5)CC3)n4C[C@@H]3CCO3)cc12 [Compound 391]	0.91	116	70.3
Cc1cc(NC(=O)c2ccc3c(c2)nc(CN2CCC(c4cccc(OCc5ccc(C#N)cc5F)n4)CC2)n3C[C@@H]2CCO2)cc2cn[nH]c12 [Compound 134]	0.85	1840	904
CCn1cncc1Cn1c(Cc2c(F)cc(-c3cccc(OCc4ccc(Cl)cc4F)n3)cc2F)nc2cc(NC(=O)c3cc(F)c4[nH]nc(C)c4c3)ccc21 [Compound 415]	0.71	233	117
Cc1n[nH]c2c(F)cc(NC(=O)c3ccc4c(c3)nc(CN3CCC(c5cccc(OCc6ccc(Cl)cc6F)n5)CC3)n4C[C@@H]3CCO3)cc12 [Compound 103]	0.83	1550	885
Cc1n[nH]c2c(C)cc(NC(=O)c3ccc4c(c3)nc(CN3CCC(c5cccc(OCc6ccc(Cl)cc6F)n5)CC3)n4C[C@@H]3CCO3)cc12 [Compound 100]	0.98	1260	893
